{"source": "patent US20250127719A1", "about": "“ANISAMIDE-CONTAINING LIPIDS AND COMPOSITIONS AND METHODS OF USE THEREOF” (The Trustees Of The University Of Pennsylvania, priority 2021, published 2025)", "key": {"[1]": {"system": "activated 3T3-GFP fibroblasts", "test": "Second-round screening: dependency on sigma receptor-mediated transfection (haloperidol pre-treatment)", "format": "cell-based, murine", "conditions": "30 μM haloperidol 2 h, then 50 nM siGFP LNP 48 h", "description": "The top-performing LNPs were subjected to a second round of screening by evaluating their dependency on sigma receptor-mediated transfection. Activated 3T3-GFP cells were treated with or without haloperidol (30 μM) for 2 h before various LNPs loaded with siGFP (50 nM) were used to treat these cells for another 48 h. The GFP signal in each well was obtained as described above."}, "[2]": {"test": "Gel retardation assay (agarose gel electrophoresis)", "format": "physicochemical", "conditions": "weight ratio of AA-T3A-C12:siRNA above 5:1; 500 ng siRNA per lane", "description": "FIGS. 11A-11B depict optimization of the weight ratio of AA-T3A-C12 to siRNA. FIG. 11A: gel retardation assay. LNPs with different weight ratios of AA-T3A-C12:siRNA were analyzed by 1% agarose gel electrophoresis. 500 ng siRNA was loaded into each lane. […] FIG. 11B: RiboGreen RNA assay. The siRNA encapsulation efficiency reached a plateau of ˜90% when the weight ratio of AA-T3A-C12:siRNA was 10:1. Data are presented as mean±SD (n=3).\n(§1) The hydrodynamic diameter, polydispersity index (PDI), and zeta potential of LNPs were measured using a Zetasizer Nano ZS90 (Malvern Instruments, Malvern, UK). The morphology of LNPs was characterized by transmission electron microscopy (JEOL 1010, Tokyo, Japan). The siRNA-LNP complex was analyzed by agarose gel electrophoresis. siRNA encapsulation efficiency was determined using a modified Quant-iT RiboGreen RNA assay (Invitrogen) as previously described. The pKa of LNP was determined by 6-(p-toluidinyl)naphthalene-2-sulfonic acid (TNS) assay as previously described."}, "[3]": {"test": "siRNA encapsulation efficiency, RiboGreen RNA assay", "format": "physicochemical", "conditions": "weight ratio of AA-T3A-C12:siRNA 10:1", "description": "as §1"}, "[4]": {"system": "activated 3T3-GFP fibroblasts", "test": "High-throughput screening of LNPs: GFP knockdown, plate reader", "format": "cell-based, murine", "conditions": "50 nM siGFP, 48 h post-treatment", "description": "High-throughput screening of LNPs was performed by evaluating GFP knockdown efficiency in 96-well plates using a plate reader assay. 3T3-GFP cells were re-suspended in DMEM containing 10 ng/ml of TGF-β, and seeded into a 96-well plate at a density of 5,000 cells per well. After 24 h, activated cells were treated with various LNPs loaded with siGFP (50 nM). At 48 h post-treatment, the GFP signal in each well was obtained using an Infinite M Plex plate reader (Tecan, Morrisville, NC, USA) with an excitation of 488 nm and an emission of 520 nm. Cell viability was measured using a CellTiter-Glo Luminescent Cell Viability Assay according to the manufacturer's instruction (G7572, Promega)."}}}
{"compound": "CCCCCCCCCCC(O)CN(CCCN(CCCNC(=O)c1ccc(OC)cc1)CCCN(CC(O)CCCCCCCCCC)CC(O)CCCCCCCCCC)CC(O)CCCCCCCCCC", "note": "(stereo not shown) [AA-T3A-C12, N-(3-(bis(3-(bis(2-hydroxydodecyl)amino)propyl)amino)propyl)-4-methoxybenzamide]", "values": [{"measurement": "change of GFP silencing activity after haloperidol (HP) treatment", "setting": "[1]", "result": "the most significant loss of activity"}, {"measurement": "free siRNA in gel retardation assay", "setting": "[2]", "result": "Little to no free siRNA was observed"}, {"measurement": "siRNA encapsulation efficiency plateau", "setting": "[3]", "result": "~90", "unit": "%"}]}
{"compound": "CCCCCCCCCCC(O)CN(CCN(CCNC(=O)c1ccc(OC)cc1)CCN(CC(O)CCCCCCCCCC)CC(O)CCCCCCCCCC)CC(O)CCCCCCCCCC", "note": "(stereo not shown) [AA-110-C12]", "values": [{"measurement": "GFP knockdown", "setting": "[4]", "result": "~70", "unit": "%"}]}
